Source: patent EP1796707B1, “PEPTIDES THAT SELECTIVELY HOME TO HEART VASCULATURE AND RELATED CONJUGATES AND METHODS” (The Burnham Institute, priority 2004, dated 2011)

How the values were obtained:
heart endothelia = assay: Phage localization in tissues: co-injection with fluorescein-conjugated tomato lectin, anti-T7 immunostaining; type: in vivo, mice; details: peptide displayed on phage, anti-T7 antibody; for phage presence in heart endothelia: injected intravenously with fluorescein-conjugated tomato lectin; for phage detection in tissues other than heart: same conditions
Description: Further characterization was performed on the five most efficient homing peptides, as indicated by the fold-selectivity summarized in Table 1, and their putative receptors. These homing peptides were analyzed for the ability to selectively bind heart endothelia in vivo and for specific binding to their putative receptors, which also were analyzed for expression in heart endothelia. Each of the phage-displaying a particular homing peptide was individually injected intravenously into mice with fluorescein-conjugated tomato lectin, a blood vessel marker. […] None of the six phage were detected in tissues other than heart under the same conditions.
Immunohistochemistry was performed as follows. Rat monoclonal anti-mouse CD31 (1:100) was obtained from BD Pharmingen (San Jose, CA), and rabbit polyclonal anti-T7 phage (1:500), and chicken anti-mouse CRIP2 IgY (1:100) were obtained from GenWay (San Diego, CA). Secondary antibodies, AlexaFluor-488 goat anti-rat IgG (1:1000) and AlexaFluor-594 goat anti-rat or rabbit IgG (1:1000) were obtained from Molecular Probes (Eugene, OR); the secondary antibody GAYFC-AlexaFluor 594 goat anti-IgY Fc (1:250) was obtained from GenWay. Frozen sections were preincubated with blocking buffer (5% normal goat serum and 0.5% BSA in 1x PBS) for one hour, washed three times with PBS, and incubated with the primary antibody of interest overnight at 4°C. After the overnight incubation, secondary antibodies were added and incubated for one hour at room temperature. Slides were washed three times with PBS and mounted in Vectashield Mounting Medium with DAPI (Vector Laboratories; Burlingame, California). Blood vessels were additionally visualized by intravenous injection with Lycopersicon esculentum (tomato) lectin conjugated to fluorescein (100 µg in 200 µl of PBS) purchased from Vector Laboratories.

MpcII-3-related protein = assay: Phage binding to 293T cells transfected with cognate receptor, with free peptide competition; parameters: species or system murine
Description: (§1) Full-length cDNAs were constructed for four of the putative heart homing receptors, HLP/CRIP2, Sigirr/TIR8, and MpcII-3-related protein and bc10, and expressed in 293T cells. […]
(§2) Receptor transfections and phage binding assays were performed as follows. 293T cells were transfected with pMH6-derived plasmids (Roche Diagnostics; Indianapolis, IN) encoding HLP/CRIP2, Sigirr/TIR8, MpcII-3-retated protein and bc10 using the Fugene transfection reagent (Roche Diagnostics). Briefly, 10 µg of plasmid was mixed with 700 µl of serum-free DMEM and 30 µl of Fugene transfection reagent and incubated for 15 minutes at room temperature before the mixture was added to cells. After forty-eight hours, cells were detached from culture dishes using EDTA and washed once with PBS. Phage displaying CRPPR (SEQ ID NO: 1), CKRAVR (SEQ ID NO: 7), CRSTRANPC (SEQ ID NO: 11) or CPKTRRVPC (SEQ ID NO: 12) and nonrecombinant control phage (1 x 10^9 p.f.u) were incubated with transfected cells for two hours at 4°C. Unbound phage were removed by five washes with 1% BSA in PBS. Bound phage were rescued by addition of bacteria; binding efficiencies were determined by plaque assay as described above.
(§3) Peptides for competition assays were synthesized at The Burnham Institute peptide facility using Fmoc chemistry in a solid-phase synthesizer prior to purification by HPLC and confirmation of their identity by mass spectrometry. Fluorescein-conjugated peptides were synthesized as described in Wender et al., Proc. Natl. Acad. Sci. USA 97:13003-13008 (2000). Competition assays were performed by addition of 100 µg peptide to the cells and phage, followed by incubation at 4°C for two hours. After five washes with […], bound phage were rescued and quantitated by plaque assay.

heart vasculature = assay: In vivo phage homing to the heart after intravenous injection; details: peptide displayed on T7Select 415-1 phage, assayed individually, intravenous injection into mice
Description: In vivo panning was performed as follows. The ex vivo-selected phage pool (5 x 10^9 p.f.u.) was intravenously injected into mice through the tail vein and allowed to circulate for ten minutes before mice were carefully perfused through the left ventricle with DMEM in order to remove unbound intravascular phage. The heart and control tissues (brain, kidney, skin and muscle) were excised, and phage recovered as described in Hoffman et al., supra, 2004. Phage recovered from the heart were reinjected into mice, and the cycle was repeated for a total of three rounds. Non-recombinant phage were injected into a separate mouse as a control in each experiment.
As summarized in Table 1, receptor clone 5 represents the carboxy-terminal 92 amino acids of heart LIM-protein (HLP), also designated cysteine-rich protein 2 (CRIP2) and ESP 1. HLP, which is expressed in the vascular heart (Yu et al., Mech. Dev. 116:187-192 (2002)) is a LIM domain-containing protein having homology to Crp-1 (Karim et al., Genomics 31:167-176 (1996); and van Ham et al., Genes Cells 8:631-644 (2003)). Of the five positive colonies from the two-hybrid analysis with the HLP clone, three cognate peptides were identified: CRPPR (SEQ ID NO: 1) was present twice, CGRKSKTVC (SEQ ID NO: 2) once and CGNQVDSRC (SEQ ID NO: 3) twice. After cloning these peptides into the T7Select 415-1 display vector, they were assayed for their ability to home to heart vasculature following intravenous injection. Relative to non-recombinant phage, the CRPPR (SEQ ID NO: 1)-displaying phage homed with more than 300 fold selectivity to the heart (Figure 2A).
Individual phage clones were reconstructed as follows. Oligonucleotides that encoded peptides from selected bait plasmids were synthesized, phosphorylated with T4 polynucleotide kinase (PNK; NEB) at 37°C for one hour, and annealed at a concentration of 0.08 pmol/µl. The annealed inserts were diluted to 0.04 pmol/µl and ligated into T7Select 415-1 arms (Novagen) with T4 ligase overnight at 16°C. The next day, intact recombinant phage were prepared by mixing the ligation reaction with packaging extracts as described by the manufacture. Inserts were confirmed by sequencing, and individual clones were amplified for ex vivo and in vivo testing as described in Example I above.

bc10 = assay: Phage binding to 293T cells transfected with cognate receptor, with free peptide competition; parameters: species or system murine
Description: as §1, §2, §3

[1] = conclusion from phage binding and competition on transfected 293T cells

Row | Sequence | phage presence in heart endothelia (heart endothelia) | phage detection in tissues other than heart (heart endothelia) | specific binding to the receptor (in words) (MpcII-3-related protein; [1]) | inhibition of phage binding to transfected cells by competition with free peptide (MpcII-3-related protein; free synthetic peptide 100 mg/ml, CRSTRANPC phage on cells transfected with MpcII-3-related protein) | heart homing selectivity relative to non-recombinant phage (heart vasculature) | specific binding to the receptor (in words) (bc10; [1]) | inhibition of phage binding to transfected cells by competition with free peptide (bc10; free synthetic peptide 100 µg/ml, CPKTRRVPC phage on bc10 transfected cells)
1 | CLIDLHVMC [peptide identified with receptor clone 27; phage served as a negative control] | absent from the heart | absent from the heart and other tissues | – | – | – | – | –
2 | CRSTRANPC [tested on phage and as free peptide] | present in heart endothelia | absent from other tissues | specifically binds | inhibited | about 20 fold | – | –
3 | CSGMARTKC | – | – | – | – | ~10 fold | – | –
4 | CPKTRRVPC [tested on phage and as free peptide] | present in heart endothelia | absent from other tissues | – | – | about 60 fold | specifically binds | inhibited
5 | CGRKSKTVC | – | – | – | – | about 50 fold | – | –
